The text below walks through data of patent US11535630B2, “Apelin receptor (APJ) agonists and uses thereof” (Research Triangle Institute, priority 2015, dated 2022).

One assay has as its target T1, apelin receptor (APJ) (Homo sapiens, UniProt P35414).
T1 sequence (P35414 1-380): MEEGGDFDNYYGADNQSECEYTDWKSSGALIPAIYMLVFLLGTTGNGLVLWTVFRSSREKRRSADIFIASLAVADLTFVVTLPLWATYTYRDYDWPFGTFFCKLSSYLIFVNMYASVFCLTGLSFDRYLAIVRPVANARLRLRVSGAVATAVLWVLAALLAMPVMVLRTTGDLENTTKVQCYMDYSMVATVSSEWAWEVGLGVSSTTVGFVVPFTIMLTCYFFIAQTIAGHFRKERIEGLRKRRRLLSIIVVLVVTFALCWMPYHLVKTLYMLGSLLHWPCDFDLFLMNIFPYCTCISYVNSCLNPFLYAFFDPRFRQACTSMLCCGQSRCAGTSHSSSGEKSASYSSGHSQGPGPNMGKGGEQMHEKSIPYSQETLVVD
Put plainly: In vitro apelin agonist activity (methods of Giddings et al., Apelin-13 as positive control). It is filed as cell-based. Particulars: EC50 (nM) Ave, in vitro apelin agonist activity, methods of Giddings et al., Apelin-13 as positive control. The text has this:
Characterization of the Apelin Agonist Activity of the Compounds
1:39-47, the contents of which are hereby incorporated by reference in its entirety. Using the methods described in Giddings et al. and Apelin-13 as a positive control.
A word on the EC50: it is the midpoint of the concentration-response curve. `O=C(C[C@H](CN1CCCC(F)(F)C1)NC(=O)c1cc(-c2ccccc2C(F)(F)F)n(C2CCCC2)n1)NC1CCC1` [compound 524, (3R)-N-cyclobutyl-3-({1-cyclopentyl-5-[2-(trifluoromethyl)phenyl]-1H-pyrazol-3-yl]formamido)-4-(3,3-difluoropiperidin-1-yl)butanamide] yielded an EC50 of 910 nM.
The same measure, in the same setting: then `CN(C[C@@H](CC(=O)NC1CCC1)NC(=O)c1cc(-c2ccccc2C(F)(F)F)n(C2CCCC2)n1)C1CCCCC1` [compound 547], with 5120 nM.

The same assay, now with this note: in vitro apelin agonist activity, methods of Giddings et al., Apelin-13 as positive control; read-out: EC50 (nM) Ave.
`O=C(O)C[C@H](CCN1CCCC(F)(F)C1)NC(=O)c1nc(-c2cccnc2C(F)(F)F)n(C2CCCC2)n1` [compound 525]: the EC50 is greater than 10000 nM.
On the same count and under the same terms, under `O=C(N[C@@H](CC1CCCC1)C(=O)O)c1cc(-c2ccccc2C(F)(F)F)n(C2CCCC2)n1` [compound 526, (2S)-3-cyclopentyl-2-({1-cyclopentyl-5-[2-(trifluoromethyl)phenyl]-1H-pyrazol-3-yl}formamido)propanoic acid] stands 1720 nM; under `CC(C)C[C@H](NC(=O)c1cc(-c2ccccc2C(F)(F)F)n(C2CCCC2)n1)C(=O)O` [compound 527, (2S)-2-({1-cyclopentyl-5-[2-(trifluoromethyl)phenyl]-1H-pyrazol-3-yl}formamido)-4-methylpentanoic acid], greater than 10000 nM; under `CC(C)[C@H](NC(=O)c1cc(-c2ccccc2C(F)(F)F)n(C2CCCC2)n1)C(=O)O` [compound 528, (2S)-2-({1-cyclopentyl-5-[2-(trifluoromethyl)phenyl]-1H-pyrazol-3-yl}formamido)-3-methylbutanoic acid], greater than 10000 nM.
As to `O=C(C[C@H](CCN1CCCC(F)(F)C1)NC(=O)c1cc(-c2ccccc2C(F)(F)F)n(C2CCCC2)n1)NS(=O)(=O)C(F)(F)F` [compound 529, (3S)-3-({1-cyclopentyl-5-[2-(trifluoromethyl)phenyl]-1H-pyrazol-3-yl}formamido)-5-(3,3-difluoropiperidin-1-yl)-N-(trifluoromethane)sulfonylpentanamide], the EC50 was found to be 134 nM.
`CN(C[C@@H](CC(=O)O)NC(=O)c1cc(-c2ccccc2C(F)(F)F)n(C2CCCC2)n1)C1CCCCC1` [compound 533, (3R)-4-[cyclohexyl(methy)amino1]-3-({1-cyclopentyl-5-[2-(trifluoromethyl)phenyl]-1H-pyrazol-3-yl}formamido)butanoic acid]: the EC50 amounted to 822 nM.
Still for that read-out and setting: under `O=C(O)C[C@H](CCN1CC(F)(F)C1)NC(=O)c1cc(-c2ccccc2C(F)(F)F)n(C2CCCC2)n1` [compound 534, (3S)-3-({1-cyclopentyl-5-[2-(trifluoromethyl)phenyl]-1H-pyrazol-3-yl}formamido)-5-(3,3-difluoroazetidin-1-yl)pentanoic acid] stands 388 nM.
On the same count and under the same terms, then `O=C(C[C@H](CCN1CC(F)(F)C1)NC(=O)c1cc(-c2ccccc2C(F)(F)F)n(C2CCCC2)n1)NC1CCC1` [compound 535, (3S)-N-cyclobutyl-3-({1-cyclopentyl-5-[2-(trifluoromethyl)phenyl]-1H-pyrazol-3-yl}formamido)-5-(3,3-difluoroazetidin-1-yl)pentanamide], with 32 nM; and `O=C(C[C@H](CCNC(=O)C1CCCC1)NC(=O)c1cc(-c2ccccc2C(F)(F)F)n(C2CCCC2)n1)NC1CCC1` [compound 536, (3S)-N-cyclobutyl-3-({1-cyclopentyl-5-[2-(trifluoromethyl)phenyl]-1H-pyrazol-3-yl}formamido)-5-(cyclopentylformamido)pentanamide], with 39 nM.
The same measure, in the same setting: then `CC(F)(F)c1ccccc1-c1cc(C(=O)N[C@@H](CCN2CCC(F)(F)C2)CC(=O)O)nn1C1CCCC1` [compound 537, (3S)-3-({1-cyclopentyl-5-[2-(1,1-difluoroethyl)phenyl]-1H-pyrazol-3-yl}formamido)-5-(3,3-difluoropyrrolidin-1-yl)pentanoic acid], with 16 nM; and `O=C(O)C[C@H](CCNC(=O)C1CCCC1)NC(=O)c1cc(-c2ccccc2C(F)(F)F)n(C2CCCC2)n1` [compound 538, (3S)-3-({1-cyclopentyl-5-[2-(trifluoromethyl)phenyl]-1H-pyrazol-3-yl}formamido)-5-(cyclopentylformamido)pentanoic acid], with 544 nM.
Consider `O=C(C[C@H](CCNC(=O)C1COC1)NC(=O)c1cc(-c2ccccc2C(F)(F)F)n(C2CCCC2)n1)NC1CCC1` [compound 539, (3S)-N-cyclobutyl-3-({1-cyclopentyl-5-[2-(trifluoromethyl)phenyl]-1H-pyrazol-3-yl}formamido)-5-(oxetan-3-ylformamido)pentanamide], for which the EC50 amounted to 176 nM.
On to `NS(=O)(=O)C[C@H](CC(=O)N1CCCC(F)(F)C1)NC(=O)c1cc(-c2ccccc2C(F)(F)F)n(C2CCCC2)n1` [compound 540, 1-cyclopentyl-N-[(2S)-4-(3,3-difluoropiperidin-1-yl)-4-oxo-1-sulfamoylbutan-2-yl]-5-[2-(trifluoromethyl)phenyl]-1H-pyrazole-3-carboxamide], for which the EC50 is 1380 nM.
On the same count and under the same terms, then `O=C(N[C@@H](CC(=O)N1CCCC(F)(F)C1)CS(=O)(=O)NC1CCC1)c1cc(-c2ccccc2C(F)(F)F)n(C2CCCC2)n1` [compound 541, N-[(2S)-1-(cyclobutylsulfamoyl)-4-(3,3-difluoropiperidin-1-yl)-4-oxobutan-2-yl]-1-cyclopentyl-5-[2-(trifluoromethyl)phenyl]-1H-pyrazole-3-carboxamide], with 1060 nM; and `COCCN(C)C(=O)[C@H](CCc1ccccc1)NC(=O)c1cc(-c2ccccc2C(F)(F)F)n(C2CCCC2)n1` [compound 542, (2S)-2-({1-cyclopentyl-5-[2-(trifluoromethyl)phenyl]-1H-pyrazol-3-yl}formamido)-N-(2-methoxyethyl)-N-methyl-4-phenylbutanamide], with 105 nM; and `O=C(O)C[C@@H](NC(=O)c1cc(-c2ccccc2C(F)(F)F)n(C2CCCC2)n1)C(=O)NC1CCCCC1` [compound 544, (3R)-3-(cyclohexylcarbamoyl)-3-({1-cyclopentyl-5-[2-(trifluoromethyl)phenyl]-1H-pyrazol-3-yl]formamido)propanoic acid], with 205 nM.
For the compound `O=C(O)C[C@H](COc1ccc(F)cc1)NC(=O)c1cc(-c2ccccc2C(F)(F)F)n(C2CCCC2)n1` [compound 545, (3R)-3-({1-cyclopentyl-5-[2-(trifluoromethyl)phenyl]-1H-pyrazol-3-yl}formamido)-4-(4-fluorophenoxy)butanoic acid], the EC50 turned out to be 1230 nM.
Still for that read-out and setting: under `O=C(C[C@H](COc1ccc(F)cc1)NC(=O)c1cc(-c2ccccc2C(F)(F)F)n(C2CCCC2)n1)NC1CCC1` [compound 546, (3R)-N-cyclobutyl-3-({1-cyclopentyl-5-[2-(trifluoromethyl)phenyl]-1H-pyrazol-3-yl}formamido)-4-(4-fluorophenoxy)butanamide] stands 114 nM; under `O=C(O)C[C@H](CCNC1CC(F)(F)C1)NC(=O)c1cc(-c2ccccc2C(F)(F)F)n(C2CCCC2)n1` [compound 548, (3S)-3-({1-cyclopentyl-5-[2-(trifluoromethyl)phenyl]-1H-pyrazol-3-yl}formamido)-5-[(3,3-difluorocyclobutyl)amino]pentanoic acid], 255 nM.
